# PubChem BioAssay (NCI)
# Several values for one entry are separate records, joined by “and”; a condition that tells them apart may be missing. Equal values may be shown once.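 Exposure lasted 48 hours, with cells grown in 96-well plates and compounds tested at five concentrations. The concentration for 50% growth inhibition is given as GI50. TGI: concentration producing complete growth inhibition.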
# Columns and labels:
# Assay in all cases: NCI tumour cell line growth inhibition, 48 h
# [1] = system: MOLT-4 leukemia
# [2] = system: MDA-N
# [3] = system: UACC-62 melanoma
# [4] = system: HCT-15 colon
# [5] = system: HOP-92 NSCLC
# [6] = system: A498 renal
# [7] = system: DMS 273 small cell lung
# [8] = system: TK-10 renal
# [9] = system: DLD-1 colon
# [10] = system: NCI/ADR-RES ovarian
# [11] = system: SNB-78 CNS
# [12] = system: NCI-H460 lung
# [13] = system: NCI-H226 lung
# [14] = system: HS 578T breast
# [15] = system: M14 melanoma
# [16] = system: ACHN renal
# [17] = system: SF-539 CNS
# [18] = system: CAKI-1 renal
# [19] = system: MDA-MB-435
# [20] = system: XF 498 CNS
# [21] = system: BT-549 breast
# [22] = system: DMS 114 small cell lung
# [23] = system: MDA-MB-231 breast
# [24] = system: SN12K1 renal
# [25] = system: EKVX NSCLC
# [26] = system: MALME-3M melanoma
# [27] = system: SK-MEL-5 melanoma
# [28] = system: SF-268 CNS
# [29] = system: IGROV1 ovarian
# [30] = system: HCC-2998 colon
# [31] = system: RXF 393 renal
# [32] = system: KM20L2 colon
# [33] = system: NCI-H522 lung
# [34] = system: UO-31 renal
# [35] = system: NCI-H23 lung
# [36] = system: OVCAR-8 ovarian
# [37] = system: RPMI-8226 leukemia
# [38] = system: M19-MEL melanoma
# [39] = system: HOP-62 NSCLC
# [40] = system: PC-3 prostate
# [41] = system: SK-OV-3 ovarian
# [42] = system: SF-295 CNS
# [43] = system: CCRF-CEM leukemia
# [44] = system: K-562 leukemia
# [45] = system: MCF7 breast
# [46] = system: SNB-75 CNS
# [47] = system: 786-0 renal
# [48] = system: T-47D breast
# [49] = system: HOP-18 NSCLC
# [50] = system: HL-60(TB) leukemia
# [51] = system: OVCAR-4 ovarian
# [52] = system: SN12C renal
# [53] = system: P388/ADR leukemia
# [54] = system: SK-MEL-2 melanoma
# [55] = system: HT29 colon
# [56] = system: P388 leukemia
# [57] = system: SR leukemia
# [58] = system: OVCAR-3 ovarian
# [59] = system: SK-MEL-28 melanoma
# [60] = system: UACC-257 melanoma
# [61] = system: KM12 colon
# [62] = system: DU-145 prostate
# [63] = system: COLO 205 colon
# [64] = system: HCT-116 colon
# [65] = system: OVCAR-5 ovarian
# [66] = system: U251 CNS
# [67] = system: SW-620 colon
# [68] = system: A549 NSCLC
# [69] = system: SNB-19 CNS
# [70] = system: LOX IMVI melanoma
# [71] = system: LXFL 529 NSCLC
# [72] = system: RXF-631 renal
structure (smiles),measurement,setting,value
O=S1(=O)CS(=O)(=O)OCCO1,GI50,[1],18.4 µM
same,TGI,[1],100 µM
same,TGI,[2],80.3 µM
same,GI50,[3],12 µM
same,TGI,[3],> 78.7 µM and 20.9 µM
same,GI50,[4],> 85.6 µM
same,TGI,[4],128 µM
same,GI50,[5],> 49.7 µM
same,TGI,[5],112 µM
same,TGI,[6],154 µM
same,TGI,[7],215 µM
same,TGI,[8],363 µM
same,TGI,[9],164 µM
same,GI50,[10],25.7 µM
same,TGI,[10],89.6 µM and 270 µM
same,TGI,[11],140 µM
same,GI50,[12],18.1 µM
same,TGI,[12],69.9 µM
same,GI50,[13],> 93.7 µM
same,TGI,[13],172 µM
same,TGI,[14],176 µM
same,GI50,[15],> 78.5 µM
same,TGI,[15],162 µM
same,GI50,[16],36.3 µM
same,TGI,[16],56.5 µM
same,GI50,[17],30.4 µM
same,TGI,[17],> 78.2 µM and 63.5 µM
same,GI50,[18],33.2 µM
same,TGI,[18],> 92.9 µM and 143 µM
same,GI50,[19],72.9 µM
same,TGI,[19],94.4 µM
same,TGI,[20],47.1 µM
same,GI50,[21],69.2 µM
same,TGI,[21],156 µM
same,TGI,[22],108 µM
same,TGI,[23],352 µM
same,TGI,[24],92.4 µM
same,TGI,[25],273 µM
same,TGI,[26],214 µM
same,GI50,[27],> 56.6 µM
same,TGI,[27],87.7 µM
same,GI50,[28],85.6 µM
same,TGI,[28],249 µM
same,GI50,[29],> 69.7 µM
same,TGI,[29],144 µM
same,GI50,[30],68.1 µM
same,TGI,[30],106 µM
same,GI50,[31],> 94.8 µM
same,TGI,[31],118 µM
same,TGI,[32],331 µM
same,GI50,[33],> 96.4 µM
same,TGI,[33],140 µM
same,TGI,[34],134 µM
same,TGI,[35],> 81.5 µM and 113 µM
same,GI50,[36],> 77.7 µM
same,TGI,[36],235 µM
same,TGI,[37],599 µM
same,TGI,[38],126 µM
same,GI50,[39],> 85.2 µM
same,TGI,[39],50.9 µM
same,TGI,[40],665 µM
same,TGI,[41],70.5 µM
same,GI50,[42],43.1 µM
same,TGI,[42],121 µM
same,TGI,[43],252 µM
same,TGI,[44],423 µM
same,GI50,[45],39.1 µM
same,TGI,[45],348 µM
same,GI50,[46],56.9 µM
same,TGI,[46],57.2 µM
same,GI50,[47],35.6 µM
same,TGI,[47],159 µM
same,GI50,[48],87.6 µM
same,TGI,[48],557 µM
same,TGI,[49],436 µM
same,GI50,[50],23.9 µM
same,TGI,[50],93.1 µM and 61.8 µM
same,TGI,[51],130 µM
same,TGI,[52],335 µM
same,TGI,[53],91.8 µM
same,TGI,[54],119 µM
same,TGI,[55],347 µM
same,TGI,[56],119 µM
same,GI50,[57],1.15 µM
same,TGI,[58],87.5 µM
same,GI50,[59],> 93.9 µM
same,TGI,[59],300 µM
same,GI50,[60],> 63.8 µM
same,TGI,[60],153 µM
same,TGI,[61],121 µM
same,TGI,[62],178 µM
same,TGI,[63],157 µM
same,GI50,[64],> 74.6 µM
same,TGI,[64],85.3 µM
same,TGI,[65],269 µM
same,GI50,[66],18.2 µM
same,TGI,[66],96.3 µM
same,TGI,[67],321 µM
same,GI50,[68],> 82.6 µM
same,TGI,[68],186 µM
same,TGI,[69],324 µM
same,GI50,[70],29.7 µM
same,TGI,[70],71.3 µM
CN(C)CC1CCCCCCCCCC(CN(C)C)C1=O (configuration not stated),TGI,[1],> 25.7 µM
same,TGI,[2],30.9 µM
same,TGI,[3],> 44.1 µM
same,TGI,[4],> 61.2 µM
same,TGI,[5],> 48.4 µM
same,TGI,[6],> 46.2 µM
same,TGI,[7],> 100 µM
same,TGI,[8],> 53.7 µM
same,TGI,[9],> 100 µM
same,TGI,[10],52.1 µM
same,TGI,[11],> 100 µM
same,TGI,[12],> 57 µM
same,TGI,[13],> 60.3 µM
same,TGI,[14],24.1 µM
same,TGI,[15],> 49.1 µM
same,TGI,[71],> 100 µM
same,TGI,[16],> 46.3 µM
same,TGI,[17],> 47 µM
same,TGI,[18],> 50 µM
same,TGI,[19],19.7 µM
same,TGI,[20],> 100 µM
same,TGI,[21],18.7 µM
same,TGI,[22],> 100 µM
same,TGI,[23],84.6 µM
same,TGI,[25],> 54.2 µM
same,TGI,[26],> 65.4 µM
same,TGI,[27],41.2 µM
same,TGI,[28],> 53.9 µM
same,TGI,[29],> 55.8 µM
same,TGI,[30],> 100 µM
same,TGI,[31],> 42.4 µM
same,TGI,[32],> 100 µM
same,TGI,[33],10.5 µM
same,TGI,[34],> 53.3 µM
same,TGI,[35],> 50.5 µM
same,TGI,[36],> 54.8 µM
same,TGI,[37],> 100 µM
same,TGI,[38],> 100 µM
same,TGI,[39],> 62.4 µM
same,TGI,[40],19.4 µM
same,TGI,[41],> 45.6 µM
same,TGI,[42],> 59.7 µM
same,TGI,[43],> 26.4 µM
same,TGI,[44],> 38.5 µM
same,TGI,[45],24.3 µM
same,TGI,[46],> 44.9 µM
same,TGI,[47],> 40.6 µM
same,TGI,[48],53 µM
same,TGI,[49],> 100 µM
same,TGI,[50],> 100 µM
same,TGI,[72],> 100 µM
same,TGI,[51],> 41.2 µM
same,TGI,[52],> 53.5 µM
same,TGI,[54],> 67.4 µM
same,TGI,[55],> 43.8 µM
same,TGI,[57],> 100 µM
same,TGI,[58],> 40.1 µM
same,TGI,[59],> 54.4 µM
same,TGI,[60],> 48.1 µM
same,TGI,[61],> 39.4 µM
same,TGI,[62],31.1 µM
same,TGI,[63],> 100 µM
same,TGI,[64],> 64.5 µM
same,TGI,[65],> 63.6 µM
same,TGI,[66],> 54.5 µM
same,TGI,[67],> 45.5 µM
same,TGI,[68],> 51.5 µM
same,TGI,[69],> 55.6 µM
same,TGI,[70],> 37.2 µM
